Assay results reported in patent US20110130286A1, “Piperazine Compounds with Herbicidal Effect” (BASF SE, priority 2008, published 2011).
Each block holds one compound with its values, some of them ahead of it.

Assays:
ALOMY [1] = test: greenhouse test, pre-emergence treatment; format: in vivo, Alopecurus agrestis; conditions: for herbicidal activity against ALOMY: application rate 0.125 kg/ha, comparative test
Source text: (§1) The culture containers used were plastic flowerpots containing loamy sand with approximately 3.0% of humus as the substrate. The seeds of the test plants were sown separately for each species.
(§2) For the pre-emergence treatment, the active compounds, which had been suspended or emulsified in water, were applied directly after sowing by means of finely distributing nozzles. The containers were irrigated gently to promote germination and growth and subsequently covered with transparent plastic hoods until the plants had rooted. This cover caused uniform germination of the test plants, unless this has been impaired by the active compounds.
(§3) Depending on the species, the plants were kept at 10-25° C. or 20-35° C. The test period extended over 2 to 4 weeks. During this time, the plants were tended, and their response to the individual treatments was evaluated.
(§4) Evaluation was carried out using a scale from 0 to 100. 100 means no emergence of the plants, or complete destruction of at least the aerial moieties, and 0 means no damage, or normal course of growth. A good herbicidal activity is given at values of at least 70 and a very good herbicidal activity is given at values of at least 85.
(§5) The respective stated components A and B were formulated as a 5% by weight strength or 10% by weight strength emulsion concentrate, or a commercial formulation of component B was used, and, with addition of the amount of solvent system, introduced into the spray liquor used for applying the active compound. In the examples, the solvent used was water.
(§6) The test period extended over 20 or 21 days. During this time, the plants were tended, and their reactions to the treatments with active compound were monitored.
(§7) In the examples below, using the method of S. R. Colby (1967) “Calculating synergistic and antagonistic responses of herbicide combinations”, Weeds 15, p. 22ff., the value E, which is expected if the activity of the individual active compounds is only additive, was calculated.
(§8) What was evaluated was the damage by the chemical compositions using a scale of from 0 to 100%, in comparison to the untreated control plants. 0 means no damage, and 100 means complete destruction of the plants.

APESV [2] = test: greenhouse test, pre-emergence treatment; format: in vivo, Apera spica-venti; conditions: for herbicidal activity against APESV: application rate 0.125 kg/ha, comparative test
Source text: as §1, §2, §3, §4, §5, §6, §7, §8

ECHCG [3] = test: greenhouse test, pre-emergence treatment; format: in vivo, Echinochloa crus-galli
Source text: as §1, §2, §3, §4, §5, §6, §7, §8

CHEAL = test: greenhouse test, post-emergence treatment; format: in vivo, Chenopodium album
Source text: as §1
(§9) For the post-emergence treatment, the test plants were first grown to a height of 3 to 15 cm, depending on the plant habit, and then treated with the active compounds which had been suspended or emulsified in water. For this purpose, the test plants were either sown directly and grown in the same containers, or they were first grown separately as seedlings and transplanted into the test containers a few days prior to treatment.
(§10) Depending on the species, the plants were kept at 10-25° C. or 20-35° C. […] During this time, the plants were tended, and their response to the individual treatments was evaluated. […]
as §6, §7
(§11) What was evaluated was the damage by the chemical compositions using a scale of from 0 to 100%, in comparison to the untreated control plants. […]

VIOAR = test: greenhouse test, pre-emergence treatment; format: in vivo, Viola arvensis
Source text: as §1, §2, §10, §6, §7, §11

POLCO [4] = test: greenhouse test, pre-emergence treatment; format: in vivo, Fallopia convolvulus
Source text: as §1, §2, §10, §6, §7, §11

ABUTH = test: greenhouse test, pre-emergence treatment; format: in vivo, Abutilon theophrasti
Source text: as §1, §2, §10, §6, §7, §11

POLCO [5] = test: greenhouse test, post-emergence treatment; format: in vivo, Fallopia convolvulus
Source text: as §1, §9, §10, §6, §7, §11

BROIN [6] = test: greenhouse test, post-emergence treatment; format: in vivo, Bromus inermis
Source text: as §1, §9, §10, §6, §7, §11

BRAPL = test: greenhouse test, pre-emergence treatment; format: in vivo, Brachiaria plantaginea
Source text: as §1, §2, §10, §6, §7, §11

LAMPU = test: greenhouse test, pre-emergence treatment; format: in vivo, Lamium purpureum
Source text: as §1, §2, §10, §6, §7, §11

BROIN [7] = test: greenhouse test, pre-emergence treatment; format: in vivo, Bromus inermis
Source text: as §1, §2, §3, §5, §6, §7, §8

APESV [8] = test: greenhouse test, post-emergence treatment; format: in vivo, Apera spica-venti
Source text: as §1, §9, §10, §6, §7, §11

SETVI = test: greenhouse test, pre-emergence treatment; format: in vivo, Setaria viridis
Source text: as §1, §2, §10, §6, §7, §11

ALOMY [9] = test: greenhouse test, post-emergence treatment; format: in vivo, Alopecurus agrestis
Source text: as §1, §9, §10, §6, §7, §11

ECHCG [10] = test: greenhouse test, post-emergence treatment; format: in vivo, Echinochloa crus-galli; conditions: application rate 1.0 kg/ha, scale from 0 to 100
Source text: as §1, §9, §3, §4

LOLMU = test: greenhouse test, post-emergence treatment; format: in vivo, Lolium multiflorum; conditions: application rate 1.0 kg/ha, scale from 0 to 100
Source text: as §1, §9, §3, §4

AVEFA = test: greenhouse test, post-emergence treatment; format: in vivo, Avena fatua; conditions: application rate 1.0 kg/ha, scale from 0 to 100
Source text: as §1, §9, §3, §4

[11] = application rate 0.125 kg/ha, comparative test

SMILES: CN1C(=O)C(Cc2ccccc2)N(C)C(=O)/C1=C/c1cccnc1C#N (stereo not drawn) [Ex. 14, reference compound]
- herbicidal activity against ALOMY (ALOMY [1]): no herbicidal activity
- herbicidal activity against APESV (APESV [2]): 90%
- herbicidal activity against ECHCG (ECHCG [3]; [11]): no herbicidal activity

SMILES: CC(C)CN1C(=O)C(=Cc2cccnc2Br)N(C)C(=O)C1(C)Cc1ccccc1 (racemic) [I-463]
- herbicidal activity against ECHCG (ECHCG [3]; application rate 0.5 kg/ha, scale from 0 to 100): good (A good herbicidal activity is given at values of at least 70)

- melting point: 163 °C
SMILES: CN1C(=O)C(C)(Cc2ccccc2)N(C)C(=O)C1=Cc1cccnc1C#N (stereo not drawn) [Example 4, 3-(5-benzyl-1,4,5-trimethyl-3,6-dioxopiperazin-2-ylidene-methyl)pyridine-2-carbonitrile]

- melting point: 163 °C
SMILES: CN1C(=O)C(C)(Cc2ccccc2)N(C)C(=O)/C1=C/c1cccnc1C#N (stereo not drawn) [I-2]
- Herbicidal activity in % after 20 days against CHEAL (CHEAL; 125 g/ha a.s.): 70%
- Herbicidal activity in % after 20 days against VIOAR (VIOAR; 62.5 g/ha a.s.): 60%
- Herbicidal activity in % after 20 days against ALOMY (ALOMY [1]; 62.5 g/ha a.s.): 65%
- herbicidal activity against ALOMY (ALOMY [1]): 75%
- Herbicidal activity in % after 20 days against POLCO (POLCO [4]; 125 g/ha a.s.): 80%
- Herbicidal activity in % after 20 days against ABUTH (ABUTH; 62.5 g/ha a.s.): 0%
- Herbicidal activity in % after 20 days against POLCO (POLCO [5]; 62.5 g/ha a.s.): 40%
- Herbicidal activity in % after 20 days against BROIN (BROIN [6]; 125 g/ha a.s.): 45%
- Herbicidal activity in % after 20 days against APESV (APESV [2]; 125 g/ha a.s.): 95%
- herbicidal activity against APESV (APESV [2]): 100%
- Herbicidal activity in % after 20 days against ECHCG (ECHCG [3]; 62.5 g/ha a.s.): 40%
- herbicidal activity against ECHCG (ECHCG [3]; [11]): 80%
- Herbicidal activity in % after 20 days against BRAPL (BRAPL; 62.5 g/ha a.s.): 65%
- Herbicidal activity in % after 20 days against LAMPU (LAMPU; 62.5 g/ha a.s.): 40%
- Herbicidal activity in % after 20 days against BROIN (BROIN [7]; 62.5 g/ha a.s.): 20%
- Herbicidal activity in % after 20 days against BROIN (BROIN [7]; 125 g/ha a.s.): 80%
- Herbicidal activity in % after 20 days against APESV (APESV [8]; 62.5 g/ha a.s.): 40%
- Herbicidal activity in % after 20 days against SETVI (SETVI; 62.5 g/ha a.s.): 90%
- Herbicidal activity in % after 20 days against ALOMY (ALOMY [9]; 62.5 g/ha a.s.): 45%

SMILES: CN1C(=O)C(C)(Cc2ccccc2)N(C)C(=O)C1=Cc1cccnc1Br (racemic) [I-1]
- herbicidal activity against ECHCG (ECHCG [10]): very good (a very good herbicidal activity is given at values of at least 85)
- herbicidal activity against LOLMU (LOLMU): very good (a very good herbicidal activity is given at values of at least 85)
- herbicidal activity against AVEFA (AVEFA): very good (a very good herbicidal activity is given at values of at least 85)

- melting point: 146 °C
SMILES: CN1C(=O)C(C)(Cc2ccccc2)N(C)C(=O)C1=Cc1cccnc1Cl (stereo not drawn) [Example 3, 3-benzyl-6-[1-(2-chloropyridin-3-yl)methylidene]-1,3,4-tri-methylpiperazine-2,5-dione]

SMILES: Cn1nc(C(F)(F)F)c(CS(=O)(=O)C2=NOC(C)(C)C2)c1OC(F)F [pyroxasulfone, reference compound]
- Herbicidal activity in % after 20 days against ALOMY (ALOMY [1]; 12.5 g/ha a.s.): 90%
- Herbicidal activity in % after 20 days against POLCO (POLCO [5]; 12.5 g/ha a.s.): 40%
- Herbicidal activity in % after 20 days against LAMPU (LAMPU; 12.5 g/ha a.s.): 80%
- Herbicidal activity in % after 20 days against BROIN (BROIN [7]; 12.5 g/ha a.s.): 65%
- Herbicidal activity in % after 20 days against APESV (APESV [8]; 12.5 g/ha a.s.): 80%
- Herbicidal activity in % after 20 days against SETVI (SETVI; 12.5 g/ha a.s.): 90%
- Herbicidal activity in % after 20 days against ALOMY (ALOMY [9]; 12.5 g/ha a.s.): 85%

SMILES: CC(C)N(C)S(=O)(=O)NC(=O)c1cc(-n2c(=O)cc(C(F)(F)F)n(C)c2=O)c(F)cc1Cl [saflufenacil, reference compound]
- Herbicidal activity in % after 20 days against VIOAR (VIOAR; 6.25 g/ha a.s.): 80%
- Herbicidal activity in % after 20 days against ABUTH (ABUTH; 6.25 g/ha a.s.): 90%
- Herbicidal activity in % after 20 days against ECHCG (ECHCG [3]; 6.25 g/ha a.s.): 0%
- Herbicidal activity in % after 20 days against BRAPL (BRAPL; 6.25 g/ha a.s.): 35%

SMILES: CCC(CC)Nc1c([N+](=O)[O-])cc(C)c(C)c1[N+](=O)[O-] [pendimethalin, reference compound]
- Herbicidal activity in % after 20 days against CHEAL (CHEAL; 250 g/ha a.s.): 75%
- Herbicidal activity in % after 20 days against POLCO (POLCO [4]; 250 g/ha a.s.): 70%
- Herbicidal activity in % after 20 days against BROIN (BROIN [6]; 250 g/ha a.s.): 0%
- Herbicidal activity in % after 20 days against APESV (APESV [2]; 250 g/ha a.s.): 95%
- Herbicidal activity in % after 20 days against BROIN (BROIN [7]; 250 g/ha a.s.): 40%
